Measurements from patent publication US20120149708A1, “MODULATORS OF VIRAL TRANSCRIPTION, AND METHODS AND COMPOSITIONS THEREWITH” (George Mason University, priority 2010, published 2012).

Experiments:
HIV-1 transcription = HIV-1 transcription inhibition in T-cells and monocytes; type: cell-based; settings: T-cells versus monocytes
HIV-1 = settings: T-cells, monocytes, and peripheral blood mononuclear cells; cited from earlier work
HIV-1 LTR-CAT reporter = assay: CAT assay of Tat-mediated transactivation in HCT116 WT and Dicer-/- cells; type: cell-based; settings: HCT116 WT (Dicer) versus Dicer-/-; 48 hrs; Flavopiridol, CR8#13, F07#13 100 nm, 9AA 1000 nm
Method: Six hours later, the transfected cells were treated with DMSO, Flavopirodol (100 nm), CR8#13 (100 nm), F07#13 (100 nm), and 9AA (1000 nm). Treated cells were incubated in complete DMEM for 48 hrs at 37° C. Cells were harvested and cell extracts were used for CAT analysis. One tenth the amount of HCT116 Dicer−/−extract compared to HCT116 WT was used for CAT analysis. […] The corresponding bar graphs in A and B show values that represent the percentage of conversion of the [14C] chloramphenicol substrate in the CAT assay.
Various cells lines were transfected with the HIV-1 LTRCAT plasmid and pc-Tat to initiate the LTR transcription, and subsequently subjected to various drug treatments. After 48 hrs, cells were lysed and CAT assays were performed as previously described (Guendel et al, 2009; Van Duyne et al, 2008; Easley et al, 2010).
To evaluate the role on microRNA machinery in inhibition of viral transcription activity, HCT116 colon carcinoma cell lines that either contained a WT Dicer (HCT116 WT) or lacked the Dicer protein (HCT116 Dicer-−/−) were first transfected with the HIV-1 LTR-CAT reporter construct. The HIV-1 LTR transcription was activated with pc-Tat and following incubation for 6 hours was treated with DMSO (negative control), Flavopiridol (positive control), CR8#13, F07#13, or 9AA.
Cells were harvested 48 hrs-post treatment and processed for CAT assays (FIGS. 3A and B). […] Based on this observation the inventors hypothesize that the microRNA machinery, Dicer and Drosha, plays an inhibitory role in HIV-1 transcription.

3′TAR and 5′TAR microRNA = assay: Poly-A RT-PCR of TAR microRNA in TZM-bl cells with or without TSA; type: cell-based, HIV-1
Method: RNA was extracted 48 hrs-post drug treatment. 500 ng of RNA from the microRNA-enriched fraction was used to generate cDNA using the Quantimir kit (SBI) in order to poly adenylate small RNA species. RT reactions were performed followed by PCR in which a universal reverse primer was provided by the manufacturer. Specific microRNA forward primers are identical in sequence to the microRNA of interest. PCR products corresponding to the amplified microRNAs were separated in a 3.5% (w/v) agarose gel. The PCR products are at around 67 bp as compared with the Fermentas 1 kb DNA Plus Ladder. Increased levels of 3′TAR microRNA were produced post CR8#13 treatment.
For poly-A RT-PCR detection of microRNAs, 500 ng of RNA from the microRNA-enriched fraction was used to generate cDNA using the Quantimir kit (SBI) according to the manufacturer's protocol. Briefly, small RNA species are poly-adenylated and then reverse transcription reactions are performed with a company-provided RT primer. For PCR, a universal reverse primer is provided by the manufacturer. Specific microRNA forward primers are identical in sequence to the microRNA of interest. PCR products corresponding to the amplified microRNAs were separated in a 3.5% (w/v) agarose gel and quantified using the Kodak 1D software.
To determine whether the cdk inhibitors Flavopiridol, CR8, and CR8#13 increased levels of TAR microRNA in the TSA-treated and control TZM-bl cells total RNA was extracted from both TSA treated and control cells treated with Flavopiridol, CR8, and CR8#13 and processed for RT-PCR detection of microRNAs, specifically, for the presence of 3′TAR and 5′TAR molecules.

[1] = test system: HIV-1 (pNL4.3) in promonocytic U937 cells; assay: Reverse transcriptase assay of supernatants, pNL4.3 electroporated cells; type: cell-based; settings: Flavopiridol 200 nm, CR8 100 nm, CR8#13 50 nm, 48 hours
Method: (§1) Jurkat T-cell and promonocytic U937 cells were electroporated with 5 μg pNL4.3 followed the next day by drug treatment of Flavopiridol (200 nm), CR8 (100 nm) or CR8#13 (50 nm). Cell supernatants were collected at 48 hours post drug treatment. Viral supernatants (10 μl) were incubated in a 96-well plate with reverse transcriptase (RT) reaction mixture overnight at 37° C., and 10 μl of the reaction mix was spotted on a DEAE Filtermat paper, washed with 5% (w/v) Na2HPO4 followed by water wash, and then dried completely. RT activity was measured in a Betaplate counter.
(§2) For electroporations, Jurkat and U937 cells were resuspended at 3 million cells in 250 μl of RPMI. Five microgram of pNL4-3 was then added to the cell suspension. Cells were pulsed a single time at 210V, 800 μF, and low resistance. Electroporated cells were immediately transferred to RPMI-1640 with L-glutamine and Penicillin/Streptomycin with 10% (v/v) FBS and plated in 6 well plates. Twenty four hours-post electroporation, cells were treated with drugs for additional 48 hrs and harvested for RT analysis. RT assays were performed as described in ((Guendel et al. 2009; Easley et al. 2010).
(§3) The present inventors examined whether Formula I, or Formula II compounds were effective inhibiting viral transcription in cell lines infected with an HIV-1 construct. Thus, Jurkat T-cells and promonocytic U937 cells were transfected with pNL4.3 and then treated with Flavopiridol, CR8 and CR8#13. Similar to monocytes, the Dicer levels are low to undetectable in promonocytic cells (FIG. 6) and was detectable only when these cells had differentiated into macrophages with PMA treatment.
(§4) Following drug treatment cell supernatants were collected and processed for exogenous reverse transcriptase (RT) levels.

[2] = test system: HIV-1 (pNL4.3) in Jurkat T-cells; assay: as above; type: cell-based; settings: Flavopiridol 200 nm, CR8 100 nm, CR8#13 50 nm, 48 hours
Method: as §1, §2, §3, §4

[3] = test system: uninfected CEM, Jurkat T-cells, and U937 cells; assay: MTT assay, uninfected cells; type: cell-based; settings: 50 nm and 10 μM
Method: (§5) FIGS. 1 and 2 show screening results of CR8 derivatives on Tat-dependent transcription HIV-1 LTR. […] TZM-bl cells were transfected with 1 ug of Tat and treated the next day with DMSO, or the indicated CR8 derivative compounds at 50 nm. 48 hrs-post drug treatment, luciferase activity of the firefly luciferase was measured with the BrightGlo Luciferase Assay and luminescence was read from a 96 well plate on an EG&G Berthold luminometer. Assays were performed in triplicate, average and standard deviations are shown.
(§6) Quantitative MTT assays were performed (FIG. 2), to further validate the cell growth inhibitory activity of certain Formula I compounds. In this study, cultured, infected ACH2, J1.1, OM10.1, U1 and uninfected CEM, Jurkat T-cells, and U937 cells were brought in contact with Formula I compounds CR8, MRT-033, and BJFP1154 (CR8#13). Cell growth inhibition study was performed at two different concentrations of the inventive compounds, a low concentration of 50 nm, and high concentration of 10 μM.

[4] = test system: infected ACH2, J1.1, OM10.1, U1 cells; assay: MTT assay, infected cells; type: cell-based; settings: 50 nm and 10 μM
Method: as §5, §6

[5] = test system: HIV-1 infected and uninfected cells; assay: Classification of inhibitors by effect on viability of infected versus uninfected cells; type: cell-based; settings: 50 nM; high, moderate or poor
Description: The inhibitors were classified into three categories: high, moderate or poor, according to their effect on cellular viability in both HIV-1 infected and uninfected cells. Among the compounds tested in this study, CR8, a purine analog bearing a 2-pyridyl group para to the phenyl ring position 6 of the purine was the most promising drug candidate that killed HIV-1 infected cells, while having little or no effect on the death of uninfected cells.

[6] = test system: Jurkat T-cells (uninfected); assay: Cell viability by trypan blue exclusion, 48 hours; type: cell-based; settings: Homo sapiens, Jurkat, 50 nM, 48 hrs, read-out: Inhibition Percentage Jurkat
Method: (§7) TZM-bl cell lines were grown in Dulbecco's modified Eagle's medium supplemented with fetal bovine serum (FBS) (10%, v/v), 2 mM L-glutamine, and antibiotics (penicillin 100 U/ml, streptomycin […]) (cDMEM). HCT116 WT and HCT116 Dicer−/−cell lines were grown in McCoy's medium supplemented with FBS (10%, v/v), 2mM L-glutamine, and antibiotics (penicillin 100 U/ml, streptomycin […]). CEM, ACH2, Jurkat and U937 cells were grown in RPMI 1640 supplemented with FBS, L-glutamine, and antibiotics (penicillin 100 U/ml, streptomycin […]). All cell lines were maintained at 37° C. in 5% (v/v) CO2. […]
(§8) In brief, the inhibition studies were carried out as follows. HIV-1 infected cells ACH2, J1.1, OM10.1, U1 and uninfected CEM, Jurkat T-cells, and U937 were cultured in media. The appropriate inhibitor was added at a concentration of 10 μM. Cells were treated for 48 hours and cell viability was determined using trypan blue exclusion method. Results of such a screen for 19 inhibitors is shown in Table 1 where percent dead cells are indicated each drug tested.
(§9) Again HIV-1 infected and uninfected cells were treated with eighteen Formula I compounds at a drug concentration of 50 nm. Forty-eight hours after treatment, cytotoxicity was determined by trypan blue dye exclusion. Percent inhibition was calculated after obtaining the cell density for each well of the tissue culture plate at the end of 48 hrs.

[7] = test system: ACH2 cells (HIV-1 infected); assay: Cell viability by trypan blue exclusion, 48 hours; type: cell-based; settings: Human immunodeficiency virus 1, ACH-2, 48 h, read-out: Inhibition Percentage ACH2, 50 nM, 48 hrs, HIV-1 infected
Method: as §7, §8, §9

[8] = test system: U1 cells (HIV-1 infected); assay: Cell viability by trypan blue exclusion, 48 hours; type: cell-based; settings: 50 nM, 48 hrs, HIV-1 infected
Method: as §8, §9

[9] = test system: J1.1 cells (HIV-1 infected); assay: Cell viability by trypan blue exclusion, 48 hours; type: cell-based; settings: 50 nM, 48 hrs, HIV-1 infected
Method: as §8, §9

[10] = test system: OM10.1 cells (HIV-1 infected); assay: Cell viability by trypan blue exclusion, 48 hours; type: cell-based; settings: Human immunodeficiency virus 1; 50 nM, 48 hrs, HIV-1 infected; read-out: Inhibition Percentage OM10.1
Method: as §8, §9

U937 cells (uninfected) = assay: Cell viability by trypan blue exclusion, 48 hours; type: cell-based; settings: Homo sapiens, U-937, 50 nM, 48 hrs, read-out: Inhibition Percentage U937
Method: (§10) TZM-bl cell lines were grown in Dulbecco's modified Eagle's medium supplemented with fetal bovine serum (FBS) (10%, v/v), 2 mM L-glutamine, and antibiotics (penicillin 100 U/ml, streptomycin […]) (cDMEM). HCT116 WT and HCT116 Dicer−/−cell lines were grown in McCoy's medium supplemented with FBS (10%, v/v), 2mM L-glutamine, and antibiotics (penicillin 100 U/ml, streptomycin […]). CEM, ACH2, Jurkat and U937 cells were grown in RPMI 1640 supplemented with FBS, L-glutamine, and antibiotics (penicillin 100 U/ml, streptomycin […]). All cell lines were maintained at 37° C. in 5% (v/v) CO2.
(§11) ACH2 cells are infected with HIV-1; TZM-bl cells contain a stably-integrated HIV-1 LTR-Luciferase reporter; CEM, Jurkat, and U937 cells are uninfected. Transfections were carried out using Attractene (Qiagen) lipid reagent. Cells were cultured to confluence and pelleted at 4° C. for 15 min at 3,000 rpm. The cell pellets were washed twice with 25 ml of phosphate-buffered saline (PBS) with Ca2+ and Mg2+ (Quality Biological) and centrifuged once more. Cell pellets were resuspended in lysis buffer (50 mM Tris-HCl, pH 7.5, 120 mM NaCl, 5 mM EDTA, 0.5%, v/v, NP-40, 50 mM NaF, 0.2 mM Na3VO4, 1 mM DTT, one complete protease cocktail tablet/50 ml (Roche) and incubated on ice for 20 min, with gentle vortexing every 5 min. Cell lysates were transferred to eppendorf tubes and were centrifuged at 10,000 rpm for 10 min. Supernatants were transferred to a fresh tube where protein concentrations were determined using Bio-Rad protein assay (Bio-Rad, Hercules, Calif.).
as §8, §9

CEM cells (uninfected) = assay: Cell viability by trypan blue exclusion, 48 hours; type: cell-based; settings: 50 nM, 48 hrs
Method: as §10, §11, §8, §9

CC[C@@H](CO)Nc1nc(NCc2ccc(-c3ccccn3)cc2)c2ncn(C(C)C)c2n1 [Cyc202]
inhibition of transcription (HIV-1 transcription): effectively inhibited transcription in T-cells but not in monocytes | inhibition of HIV-1 (IC50) (HIV-1): low IC50

CN1CC[C@H](c2c(O)cc(O)c3c(=O)cc(-c4ccccc4Cl)oc23)[C@H](O)C1 [Flavopiridol]
inhibition of viral transcription (CAT) (HIV-1 LTR-CAT reporter): inhibited viral transcription significantly better in cells that contained Dicer | 3′ and 5′ TAR microRNA amount (3′TAR and 5′TAR microRNA; TZM-bl cells treated with TSA for 7 days, then drug): higher amounts of both 3′ and 5′ TAR microRNA | 3′ TAR microRNA amount (3′TAR and 5′TAR microRNA; non-TSA treated TZM-bl cells, Flavopiridol 50 nm, CR8 100 nm, CR8#13 100 nm): significantly increased amount of the 3′ TAR microRNA | RT levels in supernatant [1]: able to decrease RT levels in both cell lines | RT levels in supernatant [2]: able to decrease RT levels in both cell lines

CC[C@H](CO)Nc1nc(NCc2ccc(-c3ccccn3)cc2)n2ncc(C(C)C)c2n1.O=C(O)/C=C/C(=O)O [MRT-033, R-2-(8-isopropyl-4-(4-(pyridine-2-yl)benzylamino)pyrazolo[1,5-α]-1,3,5-triazine-2-ylamino)butan-1-ol]
cell inhibition of uninfected cells (MTT) [3]: some cell inhibition activity of uninfected cells | cell killing of infected cells (MTT) [4]: significant cell killing of infected cells over uninfected cells | Selectivity [5]: High | inhibition at 0.05 µM [6]: 50% | inhibition at 0.05 µM [7]: 90% | Inhibition Percentage U1 [8]: ++ (~50%) | Inhibition Percentage J1.1 [9]: ++ (~50%) | inhibition at 0.05 µM [10]: 75% | inhibition at 0.05 µM (U937 cells (uninfected)): 90% | Inhibition Percentage CEM (CEM cells (uninfected)): + (~25%)
